Here are results for one substance from US20110275807A1, “Application of Evodiamine in preparing medicaments for Alzheimer's disease” (Institute of Laboratory Animal Science, Chinese Academy of …, priority 2010, published 2011).

What all share (type): in vivo
The test system of one assay is IL-6. Briefly: ELISA of IL-6 in brain tissues of Alzheimer's disease model mice. The following applies: 100 mg/kg body weight/day in diet for 3 months, compared with the model group. The procedure:
(§1) The evodiamine treatment group was administrated in the standard diet plus evodiamine in a dose of 100 mg/kg body weight/day for 3 months. The model group received a standard diet as the placebo control.
For orientation: An ELISA detects its analyte on a solid surface through an enzyme-linked reagent.

In a further assay the test system is cyclaoxygenase-2 (COX-2). Briefly: Western Blotting of COX-2 expression in brain tissue of Alzheimer's disease model mice. The settings on record: 100 mg/kg body weight/day in diet for 3 months, compared with the model group. The protocol: The evodiamine treatment group was administrated in the standard diet plus evodiamine in a dose of 100 mg/kg body weight/day for 3 months. The model group received a standard diet as the placebo control. […] The inflammation is one of main reasons resulting in the pathological development of Alzheimer's disease, so Evodiamine can treat Alzheimer's disease.
A general note: A western blot detects proteins with antibodies after separation by electrophoresis.

The test system of another assay is TNF-α. Briefly: ELISA of TNF-α in brain tissues of Alzheimer's disease model mice. The following applies: 100 mg/kg body weight/day in diet for 3 months, compared with the model group. The protocol: as §1
The next assay relates to IL-Iβ. Briefly: ELISA of IL-Iβ in brain tissues of Alzheimer's disease model mice. The settings on record: 100 mg/kg body weight/day in diet for 3 months, compared with the model group. The protocol: as §1
Assay [1] concerns APPswe/PSΔE9 transgenic model of Alzheimer's disease. Kind of assay: Morris water-maze test in Alzheimer's disease mice model. The settings on record: 100 mg/kg body weight/day in diet for 3 months; compared with the model group. The procedure: The evodiamine treatment group was administrated in the standard diet plus evodiamine in a dose of 100 mg/kg body weight/day for 3 months. The model group received a standard diet as the placebo control. After a three-month continuous administration, the Morris water-maze tests were performed to test the effect of evodiamine on improvement of learning and memory abilities of the Alzheimer's disease mice model.

With Evodiamine, the “IL-6 in the brain tissues” value in the assay on IL-6 is reported as “significantly decreased”. In the assay on cyclaoxygenase-2 (COX-2), the “expression of the cyclaoxygenase-2 (COX-2) in the brain tissue” value was “reduced”. For the same substance, in the assay on TNF-α, the “TNF-α in the brain tissues” value was “significantly decreased”. Also, the “IL-Iβ in the brain tissues” value in the assay on IL-Iβ was “significantly decreased”. The “learning and memory abilities (Morris water-maze)” value in assay [1] is on record as “significantly improved”.
